According to PubChem BioAssay AID330 (DTP/NCI, 2004):
Inconclusive results and toxic doses are left out.

Tested on: P388 leukemia ip, CD2F1 mice, survival T/C
Assay: NCI In Vivo Anticancer Drug Screen. Data for tumor model P388 Leukemia (intraperitoneal) in CD2F1 (CDF1) mice
Details: endpoint: median survival time, higher = longer survival
Method in brief: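 Mice carrying the transplanted tumor received test compound or vehicle. Survival was recorded in each group, and the value is the treated-group measurement divided by that of the vehicle-treated control group.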

[1] = dose: 50.0 mg/kg/injection, schedule: Q01DX009 (ip), vehicle: Klucel (hydroxypropylcellulose) (HPC)
[2] = dose: 50.0 mg/kg/injection, schedule: Q01DX005 (ip), vehicle: saline with Tween-80
[3] = dose: 100.0 mg/kg/injection, schedule: Q01DX005 (ip), vehicle: saline with Tween-80
[4] = dose: 200.0 mg/kg/injection, schedule: Q01DX005 (ip), vehicle: saline with Tween-80
[5] = dose: 50.0 mg/kg/injection, schedule: Q01DX005 (ip), vehicle: Klucel (hydroxypropylcellulose) (HPC)
[6] = dose: 100.0 mg/kg/injection, schedule: Q01DX005 (ip), vehicle: Klucel (hydroxypropylcellulose) (HPC)
[7] = dose: 200.0 mg/kg/injection, schedule: Q01DX005 (ip), vehicle: Klucel (hydroxypropylcellulose) (HPC)

OC1(c2ccccc2C(O)(C(F)(F)F)C(F)(F)F)OC(C(F)(F)F)(C(F)(F)F)c2ccccc21 (stereo unspecified)
T/C (dose: 12.5 mg/kg/injection, schedule: Q01DX009 (ip), vehicle: Klucel (hydroxypropylcellulose) (HPC)): 101 % of control
T/C (dose: 25.0 mg/kg/injection, schedule: Q01DX009 (ip), vehicle: Klucel (hydroxypropylcellulose) (HPC)): 99 % of control
T/C [1]: 99 % of control

c1csc(C2=NCCC2)c1
T/C [2]: 100 % of control
T/C [3]: 102 % of control
T/C [4]: 102 % of control

C[CH2][Ge]([CH2]C)[CH2]C(=O)OC.C[CH2][Ge]([CH2]C)[CH2]C(=O)OC
T/C [5]: 100 % of control
T/C [6]: 100 % of control
T/C [7]: 101 % of control

Cn1c(N)c(C(=S)N2CCOCC2)c(=O)n(C)c1=O
T/C (dose: 25.0 mg/kg/injection, schedule: Q04DX002 (ip), vehicle: saline with Tween-80): 100 % of control
T/C (dose: 50.0 mg/kg/injection, schedule: Q04DX002 (ip), vehicle: saline with Tween-80): 104 % of control
T/C (dose: 100.0 mg/kg/injection, schedule: Q04DX002 (ip), vehicle: saline with Tween-80): 104 % of control

O=C1c2ccncc2C(=O)N1CCO
T/C (dose: 60.0 mg/kg/injection, schedule: Q01DX005 (ip), vehicle: saline): 103 % of control
T/C (dose: 120.0 mg/kg/injection, schedule: Q01DX005 (ip), vehicle: saline): 104 % of control
T/C (dose: 240.0 mg/kg/injection, schedule: Q01DX005 (ip), vehicle: saline): 101 % of control

CN1C(=O)/C(=c2\sc3nc4ccccc4n3c2=O)c2cc(Br)ccc21
T/C (dose: 100.0 mg/kg/injection, schedule: Q01DX001 (ip), vehicle: Klucel (hydroxypropylcellulose) (HPC)): 99 % of control
T/C (dose: 200.0 mg/kg/injection, schedule: Q01DX001 (ip), vehicle: Klucel (hydroxypropylcellulose) (HPC)): 99 % of control
T/C (dose: 400.0 mg/kg/injection, schedule: Q01DX001 (ip), vehicle: Klucel (hydroxypropylcellulose) (HPC)): 101 % of control

C=C(C)C(=O)Oc1cccccc1=O
T/C [2]: 102 % of control
T/C [3]: 106 % of control
T/C [4]: 114 % of control

[O-]c1on[n+](-c2ccccc2)c1CN1CCOCC1
T/C [5]: 107 % of control
T/C [6]: 111 % of control
T/C [7]: 102 % of control

CCOC(=O)NC(NC(=O)OCC)c1cccc([N+](=O)[O-])c1
T/C (dose: 100.0 mg/kg/injection, schedule: Q04DX003 (ip), vehicle: saline): 91 % of control
T/C (dose: 200.0 mg/kg/injection, schedule: Q04DX003 (ip), vehicle: saline): 95 % of control
T/C (dose: 400.0 mg/kg/injection, schedule: Q04DX003 (ip), vehicle: saline): 91 % of control

Cc1ccc(S(=O)(=O)N(CCc2ccccc2)S(=O)(=O)c2ccc(C)cc2)cc1
T/C [1]: 94 % of control
T/C (dose: 100.0 mg/kg/injection, schedule: Q01DX009 (ip), vehicle: Klucel (hydroxypropylcellulose) (HPC)): 100 % of control
T/C (dose: 200.0 mg/kg/injection, schedule: Q01DX009 (ip), vehicle: Klucel (hydroxypropylcellulose) (HPC)): 109 % of control

OC1c2ccccc2-c2ccc(N(Cc3ccc(Br)cc3)Cc3ccc(Br)cc3)cc21 (stereo unspecified)
T/C [2]: 100 % of control
T/C [3]: 91 % of control
T/C [4]: 92 % of control

CC1=CC(=O)N2CC(=O)N(C)c3ccc(Cl)cc3C2(c2ccccc2)O1 (stereo unspecified)
T/C [5]: 104 % of control
T/C [6]: 92 % of control
T/C [7]: 92 % of control

COc1ccc(-c2c(C(=O)O)oc3cc(O)ccc3c2=O)cc1OC
T/C (dose: 60.0 mg/kg/injection, schedule: Q01DX005 (ip), vehicle: saline with Tween-80): 99 % of control
T/C (dose: 120.0 mg/kg/injection, schedule: Q01DX005 (ip), vehicle: saline with Tween-80): 97 % of control
T/C (dose: 240.0 mg/kg/injection, schedule: Q01DX005 (ip), vehicle: saline with Tween-80): 96 % of control

CN(C)CCCN1CN(CCCN(C)C)CC(C)(C)C1
T/C (dose: 50.0 mg/kg/injection, schedule: Q01DX009 (ip), vehicle: saline with Tween-80): 103 % of control
T/C (dose: 100.0 mg/kg/injection, schedule: Q01DX009 (ip), vehicle: saline with Tween-80): 106 % of control
